Experimental findings from patent US20090005419A1, “Organic Compounds” (priority 2005, published 2009) are described below.

The structures appear in SMILES notation.

For the test, the target named is T1, HuRfl (Homo sapiens, UniProt Q15717).
T1 construct: HuRfl full length HuR protein
T1 sequence (Q15717 whole entry): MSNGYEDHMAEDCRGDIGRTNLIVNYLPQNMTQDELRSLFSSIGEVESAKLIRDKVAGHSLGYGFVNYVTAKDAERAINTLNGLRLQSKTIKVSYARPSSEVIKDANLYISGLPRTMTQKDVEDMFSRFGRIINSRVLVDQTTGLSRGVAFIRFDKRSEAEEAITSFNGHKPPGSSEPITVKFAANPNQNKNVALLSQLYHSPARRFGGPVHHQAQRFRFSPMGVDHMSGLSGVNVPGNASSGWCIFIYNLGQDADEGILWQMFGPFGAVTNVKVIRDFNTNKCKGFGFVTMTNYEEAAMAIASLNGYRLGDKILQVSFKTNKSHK
Put plainly: Competition experiments with ARE RNA binding to HuRfl (anisotropy, 2D-FIDA). Particulars: dissociation constants from competition experiments with ARE RNA binding to HuRfl; 1:1:1 stoichiometric, competitive inhibition assumed. The protocol:
(1) A cellular reporter gene assay with firefly luciferase under control of the IL-2 or TNF-α AU-rich element. This assay is designed to identify cellularly active, non-toxic inhibitors of ARE-mediated mRNA stabilization. The confirmed hits are tested in a control assay with the luciferase CDS under the IL-2 or TNF-α promoter to exclude compounds acting at the transcriptional level. By definition, the identified hit compounds interfere with posttranscriptional stabilization of short-lived ARE mRNAs at some level along the ARE pathway. (2) In vitro screen for HuR-ARE inhibitors using confocal fluctuation spectroscopy. This assay uses 2D-FIDA to monitor binding of HuR12, a shortened variant of HuR to a TMR labeled ARE RNA in solution. Compounds identified in this screen are supposed to interfere with HuR-ARE recognition by binding either to the ARE or to HuR12. (3) CONA with HuR. Combinatorial on-bead libraries are screened for high affinity HuR binders with CONA. After picking of hit beads and cleavage of on-bead binders from the solid support, the compound structures are decoded by PHPLC-MS. Binding of resynthesized hit compounds to HuR is tested in solution. As the primary result, the identified compounds represent high affinity HuR binders. Functionally, these may be inhibitors of any HuR activity including ARE recognition, nucleocytoplasmic shuttling and protection of the mRNA from ARE-dependent degradation.
The RNA fraction bound y is calculated from the anisotropy data based on y=(r−rmin)/((r−rmin)+Q(rmax−r)) with r≡ measured anisotropy, rmin, rmax≡ anisotropy of the free and HuR bound RNA, respectively, Q ≡ quenching. Dissociation constants Kd are determined by nonlinear curve fitting with KMath in Mathematica 5.0.0, assuming a 1:1:1 stoichiometric, competitive inhibition.
One may read the Kd as the equilibrium constant for the complex coming apart. Higher therefore signals a looser complex. `COCCn1c(C(=O)CN2CCC(C(N)=O)CC2)cc(C(=O)NC(CCO)C(=O)NCCCN2CCCC2=O)c1C` (stereo not shown) [Example 4, 1-{2-[4-{3-Hydroxy-1-[3-(2-oxo-pyrrolidin-1-yl)-propylcarbamoyl]-propylcarbamoyl}-1-(2-methoxy-ethyl)-5-methyl-1H-pyrrol-2-yl]-2-oxo-ethyl}-piperidine-4-carboxylic acid amide] displayed a Kd of 103 ± 20 nM. Molecule `Cc1c(C(=O)NC(Cc2c[nH]c3ccccc23)C(=O)NCCCN2CCCC2=O)cc(C(=O)CN2CCCCC2)n1Cc1ccccc1` (stereo not shown) [Example 6, 1-Benzyl-2-methyl-5-(2-piperidin-1-yl-acetyl)-1H-pyrrole-3-carboxylic acid {2-(1H-indol-3-yl)-1-[3-(2-oxo-pyrrolidin-1-yl)-propylcarbamoyl]-ethyl}-amide] had a Kd of 143 ± 27 nM. Take `COc1cccc(CCn2c(C(=O)CN3CCCCC3)cc(C(=O)NC(CC(=O)O)C(=O)NCCCN3CCCC3=O)c2C)c1` (stereo not shown) [Example 5, 3-{[1-[2-(3-Methoxy-phenyl)-ethyl]-2-methyl-5-(2-piperidin-1-yl-acetyl)-1H-pyrrole-3-carbonyl]-amino}-N-[3-(2-oxo-pyrrolidin-1-yl)-propyl]-succinamic acid]: binding was put at a Kd of 104 ± 14 nM.

On to `COc1cccc(CNC(=O)c2ccc(C(=O)NC(Cc3ccc(CN)cc3)C(=O)NCc3ccc(C)cc3)cc2)c1` (stereo not shown) [Example 3, N-[2-(4-Aminomethyl-phenyl)-1-(4-methyl-benzylcarbamoyl)-ethyl]-N′-(3-methoxy-benzyl)-terephthalamide], for which binding was put at a Kd of 92 ± 22 nM.
